In patent US12486254B2, “Uracil derivatives for stimulating read-through of premature termination codons” (Southern Research Institute, priority 2022, dated 2025) one finds EC50 data, which are given here for 26 molecules.

pEC50: −log10 of the molar value. Where only a bound is given, the exact number is not on record here.

One experiment relates to W134X-CF#14 FRT. Nature of the experiment: Read-through of a premature termination codon, W134X-CF#14 FRT data, with G418. Particulars: in presence of G418. Format: cell-based. Here is the method:
(§1) The compounds shown in Table 1 were evaluated for their ability to stimulate read-through of a premature termination codon, and their respective activities are shown in Tables 2 and 3 below.

A further experiment has as its system G542X#10-HBE5x5. Nature of the experiment: Read-through of a premature termination codon, G542X#10-HBE5x5 (Table 3). Type of experiment: cell-based. Particulars: with G418. Here is the method:
as §1

As for `CCn1c(=O)c(C(=O)CN2CCC[C@@H]2C(=O)OC)c(N)n(Cc2ccccc2)c1=O` [1.24], the pEC50 in the experiment on W134X-CF#14 FRT is 4.64; with G542X#10-HBE5x5, at most 4.00.

For the molecule `CCn1c(=O)c(C(=O)CNc2nc3ccccc3[nH]2)c(N)n(Cc2ccccc2)c1=O` [1.29], the figures for the pEC50 with W134X-CF#14 FRT and in the experiment with G542X#10-HBE5x5 were 4.93 and 4.21, respectively.

With `CCn1c(=O)c(C(=O)CN2CCCC2)c(N)n(Cc2ccc(F)cc2)c1=O` [1.194], the pEC50 in the experiment with W134X-CF#14 FRT was 4.53; in the experiment on G542X#10-HBE5x5, at most 4.00.

For `CCn1c(=O)c(C(=O)CNCC2CCCCO2)c(N)n(Cc2ccccc2)c1=O` (stereo not shown) [1.8], the pEC50 is 3.78 in the experiment with W134X-CF#14 FRT and at most 4.00 in the experiment on G542X#10-HBE5x5.

As for `CCn1c(=O)c(C(=O)CNc2cc(OC)c(OC)c(OC)c2)c(N)n(Cc2ccc(F)cc2)c1=O` [1.183], the pEC50 was 4.59 with W134X-CF#14 FRT and at most 4.00 in the experiment with G542X#10-HBE5x5.

As to `Nc1c(C(=O)CN2CCCC[C@@H]2C(=O)N2CCCCC2)c(=O)n(Cc2ccc(F)cc2)c(=O)n1Cc1ccc(F)cc1` [1.152], the pEC50 in the experiment on W134X-CF#14 FRT was 5.50; with G542X#10-HBE5x5 it was 4.60.

On to `CCn1c(=O)c(C(=O)CNC(C)C)c(N)n(Cc2ccc(F)cc2)c1=O` [1.138, 6-amino-3-ethyl-1-[(4-fluorophenyl)methyl]-5-[2-(isopropylamino)acetyl]pyrimidine-2,4-dione], for which the pEC50 with W134X-CF#14 FRT is 4.10; in the experiment with G542X#10-HBE5x5, at most 4.00.

As to `NC(=O)C1CCCCN1CC(=O)c1c(N)n(Cc2ccc(Cl)cc2)c(=O)n(Cc2ccc(Cl)cc2)c1=O` (stereo not shown) [1.107], the figures for the pEC50 in the experiment on W134X-CF#14 FRT and in the experiment with G542X#10-HBE5x5 were 5.34 and 5.15, respectively.

Regarding `CCn1c(=O)c(C(=O)CN2CCCCC2=O)c(N)n(Cc2ccc(F)cc2)c1=O` [1.165], the pEC50 with W134X-CF#14 FRT and in the experiment on G542X#10-HBE5x5 was at most 4.00 throughout.

Take `CCn1c(=O)c(C(=O)CN2CCOCC2C(N)=O)c(N)n(Cc2ccccc2)c1=O` (stereo not shown) [1.53]: the pEC50 in the experiment with W134X-CF#14 FRT and in the experiment on G542X#10-HBE5x5 was at most 4.00 each time.

`CCn1c(=O)c(C(=O)CNc2ccc(C(N)=O)cc2)c(N)n(Cc2ccc(F)cc2)c1=O` [1.206]: the pEC50 with W134X-CF#14 FRT was 4.89; with G542X#10-HBE5x5, 4.74.

Take `CCn1c(=O)c(C(=O)CN(CC(N)=O)C(C)C)c(N)n(Cc2ccc(F)cc2F)c1=O` [1.149]: the pEC50 was 5.49 with W134X-CF#14 FRT and 4.38 with G542X#10-HBE5x5.

With `CCn1c(=O)c(C(=O)CN(CC(=O)N2CCC(F)(F)CC2)C(C)C)c(N)n(Cc2ccc(F)cc2)c1=O` [1.203], the results for the pEC50 in the experiment with W134X-CF#14 FRT and with G542X#10-HBE5x5 were 5.39 and at most 4.00, respectively.

Regarding `CCn1c(=O)c(C(=O)CN(Cc2ncc[nH]2)C(C)C)c(N)n(Cc2ccccc2)c1=O` [1.57], the pEC50 with W134X-CF#14 FRT is 4.81; in the experiment on G542X#10-HBE5x5 it was at most 4.00.

In the case of `CCn1c(=O)c(C(=O)CN(Cc2ncco2)C(C)C)c(N)n(Cc2ccccc2)c1=O` [1.56], the pEC50 in the experiment with W134X-CF#14 FRT and in the experiment on G542X#10-HBE5x5 was at most 4.00 each time.

As for `CCn1c(=O)c(C(=O)CN2CCCC[C@@H]2C(=O)NCC2CC2)c(N)n(Cc2ccccc2)c1=O` [1.158], the pEC50 in the experiment on W134X-CF#14 FRT was 5.59; in the experiment on G542X#10-HBE5x5 it was at most 4.00.

As for `NC(=O)C1CCCCN1CC(=O)c1c(N)n(Cc2ccc(F)cc2)c(=O)n(CC2CCC2)c1=O` (stereo not shown) [1.140], the pEC50 is 5.20 in the experiment with W134X-CF#14 FRT and at most 4.00 with G542X#10-HBE5x5.

Turning to `CCn1c(=O)c(C(=O)CN2CCN(c3ncccn3)CC2)c(N)n(Cc2ccccc2)c1=O` [1.4], the pEC50 in the experiment on W134X-CF#14 FRT is 4.00; with G542X#10-HBE5x5 it was at most 4.00.

Turning to `CCn1c(=O)c(C(=O)CN(CC(=O)N2CCCCC2)C(C)C)c(N)n(Cc2ccc(F)cc2)c1=O` [1.176], the pEC50 is 5.79 in the experiment on W134X-CF#14 FRT and at most 4.00 with G542X#10-HBE5x5.

As for `CCn1c(=O)c(C(=O)CNCc2ccccc2)c(N)n(Cc2ccccc2)c1=O` [1.14], the pEC50 was 4.91 in the experiment with W134X-CF#14 FRT and at most 4.00 with G542X#10-HBE5x5.

`CCN(CC(N)=O)CC(=O)c1c(N)n(Cc2ccccc2)c(=O)n(CC)c1=O` [1.36]: the pEC50 with W134X-CF#14 FRT was 4.03; in the experiment on G542X#10-HBE5x5, at most 4.00.

Consider `CCn1c(=O)c(C(=O)CN2CCC(C)CC2C(N)=O)c(N)n(Cc2ccc(F)cc2)c1=O` (stereo not shown) [1.131], for which the pEC50 with W134X-CF#14 FRT was 5.33; with G542X#10-HBE5x5, at most 4.00.

As for `CCn1c(=O)c(C(=O)CN2CCc3cc(F)ccc3C2)c(N)n(Cc2ccccc2)c1=O` [1.7], the pEC50 with W134X-CF#14 FRT is 4.49; in the experiment with G542X#10-HBE5x5 it was at most 4.00.

For the molecule `CCn1c(=O)c(C(=O)CN(Cc2ccccc2)C2CCCCC2)c(N)n(Cc2ccccc2)c1=O` [1.30], the pEC50 was 4.17 with W134X-CF#14 FRT and 4.04 in the experiment on G542X#10-HBE5x5.

Regarding `CCn1c(=O)c(C(=O)CN2CCCC2C(=O)OC)c(N)n(Cc2ccccc2)c1=O` (stereo not shown) [1.12], the pEC50 in the experiment on W134X-CF#14 FRT was 4.34; in the experiment on G542X#10-HBE5x5 it was at most 4.00.

Take `CCn1c(=O)c(C(=O)CN2CCCCC2C(=O)N(C)C)c(N)n(Cc2cccs2)c1=O` (stereo not shown) [1.113]: the pEC50 is 5.24 with W134X-CF#14 FRT and at most 4.00 in the experiment on G542X#10-HBE5x5.

What is called pEC50 is the negative decadic logarithm of the EC50, by convention in mol/L.
